Source: patent US20210177722A1, “Phytic Acid Ester Derivative” (NATIONAL UNIVERSITY CORPORATION KUMAMOTO UNIVERSITY, priority 2018, published 2021)

Assays:
[1] = tested on: S1T cell (ATL cell line) tumor; assay: Effect on HTLV-1 infected cell-transplanted mouse (ATL model); assay type: in vivo; conditions: day 28 after transplantation, 20 mg/kg per day intraperitoneally for 28 days, NSG mice with S1T cells
Excerpt: In this example, the in vivo effect of Pro-IP6 on an HTLV-1 infected cell-transplanted mouse was checked. HTLV-1 (human T cell leukemia virus 1) mainly infects CD4-positive T lymphocyte, and when the infected cell cancerates, refractory malignant tumor, adult T-cell leukemia (ATL) is caused. In this example, S1T cell, that is, one of ATL cell lines, was used.
5-Week-old female NSG mice (NOD. Cg-Prkdc scid I12rg tm1Wjl/SzJ, Charles River Laboratories Japan, Inc.) were used. Five mice each in each of two cages, namely, ten mice in total, were raised with sterilized bedding (Pepar Clean: Japan SLC, Inc.) placed in a sterilized cage (Clea Japan, Inc.). […]
The control group was dosed with DMSO, and the IP6 administration group and the pro-IP6 administration group were intraperitoneally dosed respectively with IP6 in an amount of 7.1 mg/kg and pro-IP6 in an amount of 20 mg/kg. The mice were dosed continuously for 28 days after the day of the cell transplantation, and the weight and the tumor volume of each mouse were measured every day. The tumor volume was defined as (shorter diameter in mm)^2×(longer diameter in mm)×0.5, and the shorter diameter and the longer diameter were measured with a caliper. […] Subsequently, the tumor was totally removed, and the tumor volume and the tumor weight of each tumor were measured.

Jurkat cell = assay: Cell viability test (flowcytometry, Annexin V-FITC / 7-AAD); assay type: cell-based, human; conditions: 10 μM, 24 hours
Procedure: In this example, a cell viability test (flowcytometry) was performed using a Jurkat cell, that is, a human T cell-derived leukemia cell. Jurkat cells (1×10^5 cells/well, culture fluid: 500 μL) were seeded in a 24-well plate (Iwaki) to be cultured overnight. Thereafter, DMSO (1%, Fujifilm Wako Pure Chemical Corporation), an aqueous solution (1%) of IP6 (final concentration: 10 μM, Sigma Aldrich), or a DMSO solution (1%) of Pro-IP6 (myo-inositol hexaphosphate dodecakis(butyryloxymethyl) ester (4) synthesized in Example 1) (final concentration: 10 μM) was added thereto, and the resultant was cultured for 24 hours. A supernatant was removed, the resultant was washed with 1× PBS (−) once, 100 μL of 5× binding solution (PromoCell) was added thereto, and Annexin V-FITC (PromoCell) and 7-AAD (Becton, Dickinson and Company) were added thereto to perform a reaction for 15 minutes. Thereafter, measurement was performed using FACS Calibur (Becton, Dickinson and Company), and analysis was performed using FlowJo (Becton, Dickinson and Company).

TRAF6 = assay: Western blotting (2), anti-TRAF6 antibody, Jurkat cell; assay type: cell-based, human; conditions: 1 μM or 10 μM, 8 hours or 24 hours
Procedure: In this example, in the same manner as in Example 4, the action mechanism for killing cells by Pro-IP6 was checked by Wester blotting using a Jurkat cell and various antibodies. Jurkat cells (1×10^5 cells/well, culture fluid: 500 μL) were seeded in a 24-well plate to be cultured overnight. Thereafter, DMSO (1%, Fujifilm Wako Pure Chemical Corporation), an aqueous solution (1%) of IP6 (final concentration 10 μM, Sigma Aldrich), or a DMSO solution (1%) of Pro-IP6 (final concentration: 1 μM or 10 μM) was added thereto, followed by culturing for 8 hours or 24 hours. A supernatant was removed, the resultant was washed with 1× PBS (−) once, Laemmli sample buffer was added thereto, and the resultant was boiled at 100° C. for […] to dissolve the cells. The resultant was subjected to electrophoresis and then transferred onto a membrane (Millipore). […] Detection was performed using ImmunoStar LD (Fujfilm Wako Pure Chemical Corporation).

virus protein Gag = target: T1, virus protein Gag (Human immunodeficiency virus type 1 group M subtype B, UniProt P12493); assay: Intracellular aggregation of virus protein Gag (fluorescence microscope); assay type: cell-based; conditions: HeLa cells, 10 μM, 4 hours
T1 construct: aggregation of virus protein Gag or the MA region thereof; Venus; FLAG (C); expressed in transfected cells; host or cells: HeLa cells
Procedure: HeLa cells (0.5×10^5 cells/well, culture fluid: 300 μL) were seeded in a 8-well chamber slide (Thermo fisher scientific) to be cultured overnight. […] (Thermo fisher scientific) was used to introduce pUC or pEF-Gag(p17)cFLAG, pNL4-3/Gag-Venus, and the resultant was cultured for 10 hours. Thereafter, DMSO (1%, Fujifilm Wako Pure Chemical Corporation) or Pro-IP6 (final concentration: 10 μM) was added thereto, followed by culturing for another 4 hours. The thus obtained cells were fixed with 4% paraformaldehyde (Tokyo Chemical Industry Co., Ltd.), dyed with Hoechst 33342 (Thermo fisher scientific), and observed with a fluorescence microscope, BZ-X800 (Keyence).

## CCCC(=O)OCOP(=O)(OCOC(=O)CCC)O[C@H]1[C@H](OP(=O)(OCOC(=O)CCC)OCOC(=O)CCC)[C@@H](OP(=O)(OCOC(=O)CCC)OCOC(=O)CCC)[C@H](OP(=O)(OCOC(=O)CCC)OCOC(=O)CCC)[C@@H](OP(=O)(OCOC(=O)CCC)OCOC(=O)CCC)[C@H]1OP(=O)(OCOC(=O)CCC)OCOC(=O)CCC [Pro-IP6, myo-inositol hexaphosphate dodecakis(butyryloxymethyl) ester]
[1]
  tumor volume smaller as compared with that of the control group: about 25%
Jurkat cell
  induction of apoptosis (Annexin V-FITC / 7-AAD flow cytometry): induction of apoptosis in a Jurkat cell, that is, human T cell-derived leukemia cell, was observed
TRAF6
  expression of TRAF6: inhibits expression of TRAF6
Virus protein Gag
  aggregation of virus protein Gag or MA region in cell: aggregated
